Test results published in the kinase profiling compilation of Christmann-Franck et al. (2016).

Experiments:
Test in all cases: KINOMEscan competition binding
Conditions in all cases: compound 10.0 µM
DMPK (human) = DMPK (human) (UniProt Q09013)
[1] = test system: RET (human), P07949 [V804L]
ERBB4 (human) = ERBB4 (human) (UniProt Q15303)
STK25 (human) = STK25 (human) (UniProt O00506)
WEE2 (human) = WEE2 (human) (UniProt P0C1S8)
TNIK (human) = TNIK (human) (UniProt Q9UKE5)
AXL (human) = AXL (human) (UniProt P30530)
MYLK3 (human) = MYLK3 (human) (UniProt Q32MK0)
MAP2K6 (human) = MAP2K6 (human) (UniProt P52564)
CDK14 (human) = CDK14 (human) (UniProt O94921)
PIK3C2G (human) = PIK3C2G (human) (UniProt O75747)
DYRK1B (human) = DYRK1B (human) (UniProt Q9Y463)
ABL2 (human) = ABL2 (human) (UniProt P42684)
MELK (human) = MELK (human) (UniProt Q14680)
FGFR1 (human) = FGFR1 (human) (UniProt P11362)
PAK3 (human) = PAK3 (human) (UniProt O75914)
NIM1 (human) = NIM1 (human) (UniProt Q8IY84)
PKMYT1 (human) = PKMYT1 (human) (UniProt Q99640)
MAP4K5 (human) = MAP4K5 (human) (UniProt Q9Y4K4)
STK11 (human) = STK11 (human) (UniProt Q15831)
CLK3 (human) = CLK3 (human) (UniProt P49761)
AKT1 (human) = AKT1 (human) (UniProt P31749)
ACVR2A (human) = ACVR2A (human) (UniProt P27037)
SRPK3 (human) = SRPK3 (human) (UniProt Q9UPE1)
MAPK1 (human) = MAPK1 (human) (UniProt P28482)
SRC (human) = SRC (human) (UniProt P12931)
AKT3 (human) = AKT3 (human) (UniProt Q9Y243)
GSK3A (human) = GSK3A (human) (UniProt P49840)
CDC2L2 (human) = CDC2L2 (human) (UniProt Q9UQ88)
STK24 (human) = STK24 (human) (UniProt Q9Y6E0)
CAMK2A (human) = CAMK2A (human) (UniProt Q9UQM7)
CSNK1E (human) = CSNK1E (human) (UniProt P49674)
DSTYK (human) = DSTYK (human) (UniProt Q6XUX3)
RIPK4 (human) = RIPK4 (human) (UniProt P57078)
ULK2 (human) = ULK2 (human) (UniProt Q8IYT8)
RAF1 (human) = RAF1 (human) (UniProt P04049)
EPHB4 (human) = EPHB4 (human) (UniProt P54760)
NEK4 (human) = NEK4 (human) (UniProt P51957)
EPHB1 (human) = EPHB1 (human) (UniProt P54762)
PAK1 (human) = PAK1 (human) (UniProt Q13153)
BMPR1B (human) = BMPR1B (human) (UniProt O00238)

Chain of PIK3C2G (human) (O75747 whole entry, looked up): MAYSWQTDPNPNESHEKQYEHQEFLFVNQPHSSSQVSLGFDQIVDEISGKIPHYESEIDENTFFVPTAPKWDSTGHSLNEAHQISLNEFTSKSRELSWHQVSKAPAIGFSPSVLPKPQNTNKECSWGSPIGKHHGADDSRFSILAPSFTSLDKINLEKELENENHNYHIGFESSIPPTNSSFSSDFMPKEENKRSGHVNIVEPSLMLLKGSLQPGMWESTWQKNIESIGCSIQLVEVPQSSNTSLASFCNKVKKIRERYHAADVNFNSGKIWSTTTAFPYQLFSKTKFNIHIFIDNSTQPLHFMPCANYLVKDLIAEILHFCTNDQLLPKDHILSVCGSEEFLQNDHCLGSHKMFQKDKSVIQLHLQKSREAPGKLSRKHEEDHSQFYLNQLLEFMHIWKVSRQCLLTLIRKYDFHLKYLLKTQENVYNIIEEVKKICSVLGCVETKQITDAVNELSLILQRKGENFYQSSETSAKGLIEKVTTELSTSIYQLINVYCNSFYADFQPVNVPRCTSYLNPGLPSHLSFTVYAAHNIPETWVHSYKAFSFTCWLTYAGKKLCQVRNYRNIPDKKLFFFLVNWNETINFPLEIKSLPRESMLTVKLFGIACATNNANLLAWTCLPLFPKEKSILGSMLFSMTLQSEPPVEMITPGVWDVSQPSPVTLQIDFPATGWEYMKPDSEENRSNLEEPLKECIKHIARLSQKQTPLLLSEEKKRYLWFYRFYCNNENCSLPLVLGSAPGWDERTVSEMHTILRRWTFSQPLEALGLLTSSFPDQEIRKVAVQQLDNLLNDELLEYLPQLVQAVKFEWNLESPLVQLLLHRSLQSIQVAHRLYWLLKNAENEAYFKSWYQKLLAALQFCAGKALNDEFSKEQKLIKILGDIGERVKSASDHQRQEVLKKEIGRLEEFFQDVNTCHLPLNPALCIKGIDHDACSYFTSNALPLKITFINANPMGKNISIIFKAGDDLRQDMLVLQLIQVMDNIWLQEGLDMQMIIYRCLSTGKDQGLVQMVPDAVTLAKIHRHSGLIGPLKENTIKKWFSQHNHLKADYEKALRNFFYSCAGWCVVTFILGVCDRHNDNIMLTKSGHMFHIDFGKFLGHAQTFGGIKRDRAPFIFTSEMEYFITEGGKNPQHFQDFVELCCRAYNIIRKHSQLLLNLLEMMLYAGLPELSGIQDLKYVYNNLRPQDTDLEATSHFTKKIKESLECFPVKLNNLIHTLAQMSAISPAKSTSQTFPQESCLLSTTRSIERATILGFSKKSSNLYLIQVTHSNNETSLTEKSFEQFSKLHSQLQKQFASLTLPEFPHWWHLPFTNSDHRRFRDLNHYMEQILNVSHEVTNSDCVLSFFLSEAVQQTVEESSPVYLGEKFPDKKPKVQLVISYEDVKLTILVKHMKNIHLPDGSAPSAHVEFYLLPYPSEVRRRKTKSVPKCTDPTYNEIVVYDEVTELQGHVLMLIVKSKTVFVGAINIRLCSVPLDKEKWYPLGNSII
Chain of PAK3 (human) (O75914 whole entry, looked up): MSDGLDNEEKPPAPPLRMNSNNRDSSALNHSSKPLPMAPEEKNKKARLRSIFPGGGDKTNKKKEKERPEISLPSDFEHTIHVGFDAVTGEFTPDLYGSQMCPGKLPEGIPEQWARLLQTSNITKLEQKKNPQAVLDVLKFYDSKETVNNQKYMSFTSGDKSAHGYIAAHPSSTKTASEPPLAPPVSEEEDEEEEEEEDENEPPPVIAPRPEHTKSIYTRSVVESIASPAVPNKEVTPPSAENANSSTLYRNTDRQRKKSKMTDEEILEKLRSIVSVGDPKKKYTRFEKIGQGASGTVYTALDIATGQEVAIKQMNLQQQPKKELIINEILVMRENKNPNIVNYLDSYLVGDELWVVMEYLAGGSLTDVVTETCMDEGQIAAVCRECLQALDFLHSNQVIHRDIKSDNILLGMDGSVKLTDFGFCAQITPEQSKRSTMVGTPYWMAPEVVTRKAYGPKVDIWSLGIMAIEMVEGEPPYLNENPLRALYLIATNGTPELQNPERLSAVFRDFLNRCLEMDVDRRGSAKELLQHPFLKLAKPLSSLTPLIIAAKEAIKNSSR
Chain of MAP4K5 (human) (Q9Y4K4 whole entry, looked up): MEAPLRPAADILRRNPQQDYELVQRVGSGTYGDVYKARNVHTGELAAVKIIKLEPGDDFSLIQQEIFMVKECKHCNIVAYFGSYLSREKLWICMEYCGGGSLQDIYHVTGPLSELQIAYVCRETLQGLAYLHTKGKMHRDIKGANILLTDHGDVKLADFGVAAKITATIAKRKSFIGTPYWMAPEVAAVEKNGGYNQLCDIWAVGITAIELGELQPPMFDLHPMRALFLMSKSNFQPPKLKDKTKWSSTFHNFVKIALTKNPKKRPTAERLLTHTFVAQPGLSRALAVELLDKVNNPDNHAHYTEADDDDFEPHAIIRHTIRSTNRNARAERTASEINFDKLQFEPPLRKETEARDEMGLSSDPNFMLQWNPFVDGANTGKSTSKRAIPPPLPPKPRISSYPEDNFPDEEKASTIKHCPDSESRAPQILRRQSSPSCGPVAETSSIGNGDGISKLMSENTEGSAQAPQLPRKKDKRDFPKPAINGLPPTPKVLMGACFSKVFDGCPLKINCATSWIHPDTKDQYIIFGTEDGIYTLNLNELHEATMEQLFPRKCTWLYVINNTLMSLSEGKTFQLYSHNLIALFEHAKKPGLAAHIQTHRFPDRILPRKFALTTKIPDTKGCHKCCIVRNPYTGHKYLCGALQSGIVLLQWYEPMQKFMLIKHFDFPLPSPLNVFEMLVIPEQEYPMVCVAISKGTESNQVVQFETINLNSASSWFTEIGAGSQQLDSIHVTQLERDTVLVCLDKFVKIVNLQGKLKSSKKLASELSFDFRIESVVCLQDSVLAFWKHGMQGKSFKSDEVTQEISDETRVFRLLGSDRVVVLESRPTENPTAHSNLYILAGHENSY
Chain of ACVR2A (human) (P27037 whole entry, looked up): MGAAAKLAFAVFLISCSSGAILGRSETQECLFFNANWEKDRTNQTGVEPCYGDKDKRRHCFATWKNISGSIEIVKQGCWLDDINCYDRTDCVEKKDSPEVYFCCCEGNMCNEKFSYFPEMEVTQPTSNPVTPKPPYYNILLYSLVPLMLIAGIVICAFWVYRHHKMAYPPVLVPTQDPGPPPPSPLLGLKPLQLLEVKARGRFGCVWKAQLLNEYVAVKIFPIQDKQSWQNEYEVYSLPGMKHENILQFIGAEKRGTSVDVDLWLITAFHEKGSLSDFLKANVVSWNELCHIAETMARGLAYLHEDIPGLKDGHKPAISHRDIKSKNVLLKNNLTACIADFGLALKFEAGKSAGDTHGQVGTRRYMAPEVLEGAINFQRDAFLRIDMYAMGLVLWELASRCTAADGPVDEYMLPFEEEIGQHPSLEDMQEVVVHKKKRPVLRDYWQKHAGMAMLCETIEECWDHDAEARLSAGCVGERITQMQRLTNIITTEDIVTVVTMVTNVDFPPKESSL
Chain of CAMK2A (human) (Q9UQM7 whole entry, looked up): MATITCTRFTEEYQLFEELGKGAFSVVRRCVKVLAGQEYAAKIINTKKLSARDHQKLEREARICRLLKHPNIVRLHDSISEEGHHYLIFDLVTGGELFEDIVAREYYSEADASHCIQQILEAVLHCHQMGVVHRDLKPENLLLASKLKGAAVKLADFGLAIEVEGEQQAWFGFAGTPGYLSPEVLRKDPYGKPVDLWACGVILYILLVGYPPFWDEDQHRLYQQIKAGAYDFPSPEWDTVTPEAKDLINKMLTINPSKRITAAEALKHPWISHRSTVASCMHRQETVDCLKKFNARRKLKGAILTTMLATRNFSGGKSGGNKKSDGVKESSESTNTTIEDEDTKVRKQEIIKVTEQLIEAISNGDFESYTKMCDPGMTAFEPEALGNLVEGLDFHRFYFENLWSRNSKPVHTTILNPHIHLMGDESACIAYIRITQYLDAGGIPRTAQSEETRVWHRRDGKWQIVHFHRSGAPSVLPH
Chain of CSNK1E (human) (P49674 whole entry, looked up): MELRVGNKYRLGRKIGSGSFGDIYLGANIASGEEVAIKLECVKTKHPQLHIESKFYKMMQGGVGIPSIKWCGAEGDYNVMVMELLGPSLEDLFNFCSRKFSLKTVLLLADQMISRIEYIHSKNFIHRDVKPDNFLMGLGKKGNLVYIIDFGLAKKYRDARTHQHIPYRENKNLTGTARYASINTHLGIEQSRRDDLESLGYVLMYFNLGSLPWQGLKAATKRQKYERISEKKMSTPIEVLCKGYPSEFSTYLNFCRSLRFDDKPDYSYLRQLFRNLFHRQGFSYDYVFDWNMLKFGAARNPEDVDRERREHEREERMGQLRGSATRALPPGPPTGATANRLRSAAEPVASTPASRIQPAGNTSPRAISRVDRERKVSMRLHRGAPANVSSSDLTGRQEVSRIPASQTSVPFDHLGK
Chain of GSK3A (human) (P49840 whole entry, looked up): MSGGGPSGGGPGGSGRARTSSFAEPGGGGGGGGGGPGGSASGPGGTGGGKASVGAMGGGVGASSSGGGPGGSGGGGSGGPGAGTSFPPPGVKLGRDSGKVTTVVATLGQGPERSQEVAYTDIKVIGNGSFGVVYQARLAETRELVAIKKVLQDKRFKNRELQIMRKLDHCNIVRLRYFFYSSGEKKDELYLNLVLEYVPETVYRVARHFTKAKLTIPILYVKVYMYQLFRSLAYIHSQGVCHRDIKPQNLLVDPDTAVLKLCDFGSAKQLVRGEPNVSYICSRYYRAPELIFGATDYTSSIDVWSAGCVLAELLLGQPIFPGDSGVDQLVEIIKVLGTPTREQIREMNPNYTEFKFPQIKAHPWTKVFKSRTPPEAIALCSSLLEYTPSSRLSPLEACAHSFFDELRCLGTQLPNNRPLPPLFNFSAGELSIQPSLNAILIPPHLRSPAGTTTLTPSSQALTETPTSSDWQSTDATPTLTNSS

Structure (SMILES): COc1cc2c(Nc3ccc(NC(=O)c4ccccc4)cc3)ncnc2cc1OCCCN1CCOCC1
- kinase still bound, per cent of control (DMPK (human)): 100%
- kinase still bound, per cent of control [1]: 9.6%
- kinase still bound, per cent of control (ERBB4 (human)): 0.65%
- kinase still bound, per cent of control (STK25 (human)): 63%
- kinase still bound, per cent of control (WEE2 (human)): 100%
- kinase still bound, per cent of control (TNIK (human)): 51%
- kinase still bound, per cent of control (AXL (human)): 1.8%
- kinase still bound, per cent of control (MYLK3 (human)): 100%
- kinase still bound, per cent of control (MAP2K6 (human)): 86%
- kinase still bound, per cent of control (CDK14 (human)): 100%
- kinase still bound, per cent of control (PIK3C2G (human)): 14%
- kinase still bound, per cent of control (DYRK1B (human)): 96%
- kinase still bound, per cent of control (ABL2 (human)): 82%
- kinase still bound, per cent of control (MELK (human)): 42%
- kinase still bound, per cent of control (FGFR1 (human)): 94%
- kinase still bound, per cent of control (PAK3 (human)): 87%
- kinase still bound, per cent of control (NIM1 (human)): 100%
- kinase still bound, per cent of control (PKMYT1 (human)): 89%
- kinase still bound, per cent of control (MAP4K5 (human)): 2.7%
- kinase still bound, per cent of control (STK11 (human)): 100%
- kinase still bound, per cent of control (CLK3 (human)): 100%
- kinase still bound, per cent of control (AKT1 (human)): 100%
- kinase still bound, per cent of control (ACVR2A (human)): 100%
- kinase still bound, per cent of control (SRPK3 (human)): 100%
- kinase still bound, per cent of control (MAPK1 (human)): 72%
- kinase still bound, per cent of control (SRC (human)): 32%
- kinase still bound, per cent of control (AKT3 (human)): 100%
- kinase still bound, per cent of control (GSK3A (human)): 100%
- kinase still bound, per cent of control (CDC2L2 (human)): 6.9%
- kinase still bound, per cent of control (STK24 (human)): 46%
- kinase still bound, per cent of control (CAMK2A (human)): 85%
- kinase still bound, per cent of control (CSNK1E (human)): 80%
- kinase still bound, per cent of control (DSTYK (human)): 34%
- kinase still bound, per cent of control (RIPK4 (human)): 56%
- kinase still bound, per cent of control (ULK2 (human)): 91%
- kinase still bound, per cent of control (RAF1 (human)): 100%
- kinase still bound, per cent of control (EPHB4 (human)): 100%
- kinase still bound, per cent of control (NEK4 (human)): 57%
- kinase still bound, per cent of control (EPHB1 (human)): 100%
- kinase still bound, per cent of control (PAK1 (human)): 82%
- kinase still bound, per cent of control (BMPR1B (human)): 26%

Structure (SMILES): CCN1CCN(Cc2ccc(NC(=O)c3ccc(C)c(/C=C/c4cnc5[nH]ccc5c4OC)c3)cc2C(F)(F)F)CC1
- kinase still bound, per cent of control (DMPK (human)): 57%
- kinase still bound, per cent of control [1]: 0.1%
- kinase still bound, per cent of control (ERBB4 (human)): 0.1%
- kinase still bound, per cent of control (STK25 (human)): 100%
- kinase still bound, per cent of control (WEE2 (human)): 4.8%
- kinase still bound, per cent of control (TNIK (human)): 3.2%
- kinase still bound, per cent of control (AXL (human)): 4.6%
- kinase still bound, per cent of control (MYLK3 (human)): 100%
- kinase still bound, per cent of control (MAP2K6 (human)): 79%
- kinase still bound, per cent of control (CDK14 (human)): 72%
- kinase still bound, per cent of control (PIK3C2G (human)): 82%
- kinase still bound, per cent of control (DYRK1B (human)): 27%
- kinase still bound, per cent of control (ABL2 (human)): 0%
- kinase still bound, per cent of control (MELK (human)): 20%
- kinase still bound, per cent of control (FGFR1 (human)): 0.1%
- kinase still bound, per cent of control (PAK3 (human)): 6%
- kinase still bound, per cent of control (NIM1 (human)): 100%
- kinase still bound, per cent of control (PKMYT1 (human)): 71%
- kinase still bound, per cent of control (MAP4K5 (human)): 3.4%
- kinase still bound, per cent of control (STK11 (human)): 7.9%
- kinase still bound, per cent of control (CLK3 (human)): 100%
- kinase still bound, per cent of control (AKT1 (human)): 100%
- kinase still bound, per cent of control (ACVR2A (human)): 100%
- kinase still bound, per cent of control (SRPK3 (human)): 13%
- kinase still bound, per cent of control (MAPK1 (human)): 100%
- kinase still bound, per cent of control (SRC (human)): 0.15%
- kinase still bound, per cent of control (AKT3 (human)): 100%
- kinase still bound, per cent of control (GSK3A (human)): 100%
- kinase still bound, per cent of control (CDC2L2 (human)): 5.4%
- kinase still bound, per cent of control (STK24 (human)): 20%
- kinase still bound, per cent of control (CAMK2A (human)): 100%
- kinase still bound, per cent of control (CSNK1E (human)): 45%
- kinase still bound, per cent of control (DSTYK (human)): 36%
- kinase still bound, per cent of control (RIPK4 (human)): 56%
- kinase still bound, per cent of control (ULK2 (human)): 35%
- kinase still bound, per cent of control (RAF1 (human)): 0.9%
- kinase still bound, per cent of control (EPHB4 (human)): 2.7%
- kinase still bound, per cent of control (NEK4 (human)): 33%
- kinase still bound, per cent of control (EPHB1 (human)): 0.45%
- kinase still bound, per cent of control (PAK1 (human)): 100%
- kinase still bound, per cent of control (BMPR1B (human)): 14%
